Experimental findings from publication PMC11200585, “Prospects for Prostate Cancer Chemotherapy: Cytotoxic Evaluation and Mechanistic Insights of Quinolinequinones with ADME/PK Profile” (Biomedicines, 2024) are described below.

For one data set, the system named is DU-145 cells. Put plainly: MTT assay. It is filed as cell-based. As to conditions: Homo sapiens, 24 h, mean ± SEM. As for the experimental part:
(§1) For the MTT assay, DU-145, MDA-MB-231, HCT-116, and HUVEC cells (American Type Culture Collection) were seeded at a concentration of 1 × 10^4 cells per well in 96-well plates and allowed to incubate overnight, ensuring proper adherence. Subsequently, a series of concentrations for both AQQ1 and AQQ2 (ranging from 1 to 100 µM) were added to the culture medium with a final concentration of 1% DMSO, and cells were subjected to an additional 24 h incubation period. The control group only received 1% DMSO (Biomatik, Cambridge, ON, Canada). To establish a baseline for comparison, DOXO (Saba, İstanbul, Turkey), a known chemotherapeutic agent, was administered at equivalent concentrations. Following the incubation period, MTT (3-(4,5-dimethylthiazol-2-yl)-2,5-diphenyltetrazolium bromide) (Biomatik, Canada) assay was carried out to assess cell viability. Finally, the absorbance was quantified at 590 nm using a BioTek Epoc plate reader (Biotek, Winooski, VT, USA). The derived data were analysed using GraphPad Prism 8 software to calculate the inhibitory concentration 50 (IC50) values of the test compounds.
(Tetrazolium assays rely on reduction of a dye to a coloured formazan, in cell work by metabolically active cells.)

The next data set deals with MDA-MB-231 cells. Put plainly: MTT assay. The conditions noted are these: Homo sapiens, 24 h, mean ± SEM. It is filed as cell-based. As for the experimental part: as §1
Data set [1] relates to Human Umbilical Vein Endothelial Cells (HUVEC). Put plainly: MTT assay. It is filed as cell-based. The conditions noted are these: 24 h, mean ± SEM. As for the experimental part: as §1
For another data set, the system named is HCT-116 cells. Put plainly: MTT assay. It is filed as cell-based. As to conditions: Homo sapiens, 24 h, mean ± SEM. On the procedure:
as §1

A short description of data set [2]: Log P (experimental, n-octanol). It is filed as physicochemical.
The nature of data set [3]: In vitro metabolic stability. It is filed as in vitro ADME, dog (Beagle). The conditions noted are these: Dog liver microsomes; for % Metabolism in 30 min: 0.5 µM, 0.5 mg/mL protein; for half-life at 0.5 µM / microsomal CLint at 0.5 µM: male, Beagle, pH 7.4. On the procedure: (§2) S2. ADME and PK Profiling
(§3) S2.1. In vitro Metabolic Stability Study […]
(§4) metabolic stability of AQQ1 and AQQ2. A final protein (liver microsomal) concentration of 0.5 mg/mL and final test substance (AQQ1 and AQQ2) concentration of 0.5 µM were used for the study. To the respective microsomes at a volume of 12.5 µL in the well, 2.5 µL of test substance ([…] in acetonitrile: dimethyl sulfoxide, 96:4) in the presence and absence of NADPH (50 µL, 10 mM) were added and the final volume made up to 500 µL with sodium phosphate buffer (50 mM, pH 7.4). The one without NADPH served as control. Sampling (50 µL) were done at the following time points: 0, 5, 10, 15, and 30 min for sample and at 0 and 30 min for control.
(§5) Acetonitrile (150 µL) was used as quenching solvent, internal standard (Rolipram) was added, vortexed/centrifuged and the aliquot from the supernatant was analyzed using LC-MS/MS. All the experiments were performed in duplicate.
A general note: Liver microsomes are a subcellular fraction often used to study metabolism.

Data set [4] can be described thus: In vitro metabolic stability. The conditions noted are these: for % Metabolism in 30 min: 0.5 µM, 0.5 mg/mL protein; for half-life at 0.5 µM / microsomal CLint at 0.5 µM: pH 7.4. The format is in vitro ADME. As for the experimental part:
as §2, §3, §4, §5

The nature of data set [5]: Log D (experimental, n-octanol). The format is physicochemical. As to conditions: n-octanol (aqueous phase not stated).
Data set [6] in a line: In vitro metabolic stability. The format is in vitro ADME, rat (Sprague-Dawley). As to conditions: Rat liver microsomes; for % Metabolism in 30 min: 0.5 µM, 0.5 mg/mL protein; for half-life at 0.5 µM / microsomal CLint at 0.5 µM: male, Sprague-Dawley, pH 7.4. As for the experimental part: as §2, §3, §4, §5
The subject of a further data set is HS 578T. Put plainly: NCI-60 five-dose assay (breast cancer). It is filed as cell-based, human. The conditions noted are these: 48 h, SRB; for GI50 / CC50: Homo sapiens; for CC50: read-out: LC50 (the source's name).
The next data set concerns HCT-116. Put plainly: NCI-60 five-dose assay (colon cancer). It is filed as cell-based, human. The conditions noted are these: 48 h, SRB; for GI50 / LC50: Homo sapiens.
The test system of the next data set is OVCAR-4. Put plainly: NCI-60 five-dose assay (ovarian cancer). It is filed as cell-based, human. As to conditions: 48 h, SRB; for GI50 / LC50 (concentration killing 50% of cells): Homo sapiens.
The test system of a further data set is A549/ATCC. Put plainly: NCI-60 five-dose assay (non-small cell lung cancer). It is filed as cell-based, human. As to conditions: 48 h, SRB; for GI50 / CC50: Homo sapiens; for CC50: read-out: LC50 (the source's name).

One may read the IC50 as the concentration needed to halve the response being measured. A high value points to weaker potency. The term logP denotes the decadic logarithm of the partition coefficient of the neutral form, usually between octanol and water. A low value points to a more hydrophilic compound. In general, half-life refers to the time needed for the level to fall by half in the phase considered. A lower half-life goes with rapid decline. What is called microsomal CLint is a measure of how fast metabolising enzymes remove a compound, apart from limits set by blood flow. By logD is commonly meant the decadic logarithm of the distribution of all forms, ionised or not, between an organic phase and buffer at a given pH. Broadly, the TGI is the concentration giving total growth inhibition. Usually GI50 stands for the concentration that inhibits growth by half. By LC50 is commonly meant the concentration lethal to half of the exposed cells or organisms. Low readings indicate a more lethal substance, high ones a less lethal substance. On to `COc1ccccc1NC1=C(Cl)C(=O)c2nc(C)ccc2C1=O` [AQQ1], for which the IC50 with DU-145 cells worked out at 4.18 ± 0.73 µM; in the data set on MDA-MB-231 cells it was 8.27 ± 0.91 µM; in data set [1], 5.39 ± 0.73 µM; in the data set with HCT-116 cells it was 5.83 ± 0.76 µM. In data set [2], this compound returned a logP of 1.85. Besides, the “% Metabolism in 30 min” value in [3] was 41.5%; in [4] (Human liver microsomes) it was 39.5%; in data set [4] (Mouse liver microsomes), 63%; in data set [6] it was 100%. For the same compound, the half-life at 0.5 µM in data set [3] was 31 min; in [4] (Human liver microsomes), greater than 30 min; in data set [4] (Mouse liver microsomes) it was 20.5 min; in [6] it was 2 min. The microsomal CLint at 0.5 µM was 45 µL/min/mg in [3], 39 µL/min/mg in data set [4] (Human liver microsomes), 68.5 µL/min/mg in [4] (Mouse liver microsomes) and 656 µL/min/mg in [6]. The compound further gave a logD in data set [5] of 2.37. For the same compound, the TGI in the data set on HS 578T was 5.64 µM; in the data set on HCT-116, 4.16 µM; in the data set on OVCAR-4, 2.49 µM; in the data set with A549/ATCC, 6.24 µM. Also, the GI50 was found to be 2270 nM in the data set on HS 578T, 1530 nM with HCT-116, 1210 nM in the data set with OVCAR-4 and 2440 nM in the data set on A549/ATCC. Moreover, the CC50 in the data set with HS 578T is greater than 100 µM; in the data set with A549/ATCC, 45.2 µM. The compound also came in with an LC50 in the data set with HCT-116 of 44.3 µM. In the data set on OVCAR-4, the LC50 (concentration killing 50% of cells) was 5.11 µM.
On to `CCOc1ccccc1NC1=C(Cl)C(=O)c2nc(C)ccc2C1=O` [AQQ2], for which the IC50 in the data set with DU-145 cells turned out to be 4.17 ± 0.8 µM; with MDA-MB-231 cells it was 13.3 ± 1.12 µM; in [1] it was 6.39 ± 0.8 µM; in the data set with HCT-116 cells, 9.18 ± 0.96 µM. In data set [2], this compound registered a logP of 1.77. The “% Metabolism in 30 min” value in data set [3] is reported as 79.5%; in data set [4] (Human liver microsomes), 47%; in data set [4] (Mouse liver microsomes) it was 96.5%; in data set [6] it was 100%. The half-life at 0.5 µM in data set [3] amounted to 17 min; in data set [4] (Human liver microsomes) it was 26.5 min; in data set [4] (Mouse liver microsomes), 5.5 min; in data set [6] it was 3 min. Further, the microsomal CLint at 0.5 µM was 84 µL/min/mg in data set [3], 52 µL/min/mg in [4] (Human liver microsomes), 249 µL/min/mg in data set [4] (Mouse liver microsomes) and 501 µL/min/mg in [6]. This compound showed a logD in data set [5] of 2.35. For the same compound, the TGI in the data set on HS 578T is listed as 5.25 µM; in the data set on HCT-116 it was 2.31 µM; in the data set on OVCAR-4 it was 2.22 µM; with A549/ATCC, 4.64 µM. In addition, the GI50 came out at 2110 nM with HS 578T, 1050 nM in the data set with HCT-116, 1000 nM with OVCAR-4 and 2060 nM with A549/ATCC. The CC50 in the data set on HS 578T is greater than 100 µM; in the data set on A549/ATCC, 12.9 µM. Further, in the data set on HCT-116, the LC50 came to 5.05 µM. Also, the LC50 (concentration killing 50% of cells) in the data set with OVCAR-4 was 4.91 µM.
Regarding `CCOc1ccc(NC2=C(Cl)C(=O)c3nc(C)ccc3C2=O)cc1` [AQQ3], in the data set on HS 578T, the TGI worked out at 5.82 µM, the GI50 was found to be 2220 nM and the CC50 is greater than 100 µM. In the data set with HCT-116, this compound gave a TGI of 2.79 µM, a GI50 of 1320 nM and an LC50 of 5.92 µM. Besides, in the data set with OVCAR-4, the TGI stood at 2.37 µM, halving of growth (GI50) required 1130 nM and the LC50 (concentration killing 50% of cells) worked out at 4.97 µM. In the data set with A549/ATCC, the TGI is reported as 4.64 µM, the GI50 was found to be 2090 nM and the CC50 was determined as 17.5 µM.
On to `COc1cc(NC2=C(Cl)C(=O)c3nc(C)ccc3C2=O)cc(OC)c1` [AQQ5], for which, in the data set with HS 578T, the TGI was determined as 5.78 µM, the GI50 is 2430 nM and the CC50 is greater than 100 µM. In the data set on HCT-116, this compound displayed a TGI of 2.88 µM, a GI50 of 1530 nM and an LC50 of 5.45 µM. Also, in the data set with OVCAR-4, the TGI is 2.82 µM, growth was halved (GI50) at 1400 nM and the LC50 (concentration killing 50% of cells) was found to be 5.66 µM. Further, in the data set with A549/ATCC, the TGI was 8.97 µM, the GI50 turned out to be 2830 nM and the CC50 is 38.8 µM.
